# Marks after values point to notes of the source that are not given here.
# Key:
# [1] = system: patients; assay: Adverse events recorded at each visit in patients on CBD only; assay type: in vivo, human
# Experimental: Patients were assessed monthly by the clinical team (doctor and nurse) and a visit schedule protocol was followed for each patient. A full medical history was conducted at the initial visit, including a detailed history of the clinical indication (including duration symptoms), comorbidities mental and cardiac health conditions, previous procedures, medications and therapies tried. Patients were reviewed as per the Schedule of Assessments (FIG. 2). Cannabinoid dose and Adverse events were also recorded at each visit after treatment began and categorised as mild (no product change indicated), moderate (product change indicated), severe (product cessation indicated) or serious (life-threatening/medical emergency).
# Adverse events (AE) were recorded at each of the visits. AEs were categorised as either: Mild (required no change in dose or product), Moderate (required change in dose or product), Severe (required cessation of product) or Serious (medical emergency).
# All AEs reported during treatment were recorded. Assessments included monitoring of any or all of the following parameters: the participant's clinical symptoms, laboratory, pathological, radiological or surgical history, physical examination findings, and/or or findings from blood/urine tests. The nature, time of onset, duration and severity will be documented, together with the Investigator's opinion of the relationship to the Medicinal cannabis product.
# Review of the dose and side effects was conducted by the doctor at 2 weeks; the doctors then advise whether to increase/or decreases doses. Reviews and clinical visits beyond the 2 weeks occurred monthly or more often as required by the patient due to efficacy and side effects.
# [2] = system: symptoms of insomnia; assay: Insomnia Severity Index (ISI) score in patients treated with CBD only; assay type: in vivo, human; set-up: key to Change in ISI score, Visit 1 coefficient in model with interaction terms / Change in ISI score between Visit 0 and Visit 1, by initial assessment category / Change in ISI score between Visit 0 and Visit 3 (third follow-up): change in Insomnia Severity Index (7-item self-report) score
# Experimental: Insomnia may present as disturbed sleep, inability to get to sleep, inability to stay asleep and/or sleep that leaves the subject tired upon waking. The insomnia may be assessed using the Insomnia Severity Index (ISI) 7-item self-report questionnaire. […] More importantly perhaps, this global measure has been employed in number of recent clinical trials to assess the responses in insomnia to a wide variety of treatments.
# Patients were assessed for inclusion/exclusion using the same screening criteria and population criteria collected for evaluation as in Example 1. Dosing regimens were the same as Example 1.
# Column (1) first presents results from a pooled specification with a time specific dummy variable capturing the first follow-up visit (i.e., Visit 1) as the sole explanatory variable. […] Notice that the constant term (i.e., the intercept) reflects the average ISI score of 14.145 at baseline.
# Column (2) then incorporates patient-fixed effects. Note that when including fixed effects at the person level, the constant term is dropped from the regression, as it is differenced out by the fixed effects estimator—in addition to any other (un)observable time-invariant individual characteristics which may influence ISI scores (such as personality traits or beliefs). As for our coefficient of interest, it continues to emerge as negative and statistically significant. In fact, it remains virtually unchanged from column (1) since the pooled data contains exactly two observations for each patient.
# Finally, column (3) introduces interaction terms between the time dummy variable and binary indicators of starting with an ISI score in the ‘subthreshold insomnia’, ‘clinical insomnia (moderate severity)’, or ‘clinical insomnia (severe)’ category at baseline. The reference category here is determined by patients in the ‘no clinically significant insomnia’ category. Consistent with the visuals from FIG. 1, the reduction in insomnia score at the first follow-up is primarily driven by those who start in the ‘subthreshold insomnia’ category or higher at baseline.
# Exploring this issue of persistence further, Table 9 presents regression-equation checks. In particular, column (1) replicates the benchmark results showing the change in […] between baseline and the first follow-up visit. Columns (2) and columns (3) then re-estimate the results between baseline and the second follow-up visit, and baseline and the third follow-up visit respectively.
# [3] = among the 36 patients that experienced AEs
structure (smiles),measurement,setting,value
"C=C(C)C1CCC(C)=CC1c1c(O)cc(CCCCC)cc1O (centres unmarked) [cannabidiol, 2-[3-methyl-6-(1-methylethenyl)-2-cyclohexen-1-yl]-5-pentyl-1,3-benzenediol]",Patients with any AEs,[1]; 36 out of 190 patients on CBD only,19%
same,Share of AEs that were mild (no change in dose or product),[1]; [3],61%
same,Share of AEs that were moderate (requiring change in dose or product),[1]; [3],36%
same,Patients with severe AEs (allergic reactions and constipation) resulting in cessation of the product,[1]; one of the 36 patients with AEs,2.8%
same,Persistence of decrease in insomnia severity,[2]; after 4 and 6 months (Visits 2 and 3) of CBD only treatment,decrease in insomnia severity persists
same,Decrease in insomnia score,[2]; average treatment window of slightly under 13 days,−5.0
same,Fall in insomnia score,[2]; mean treatment horizon of 22 days,−4.1
same,Decline in insomnia score,[2]; mean treatment period of 7 days,−7.2
same,Change in ISI score between Visit 0 and Visit 3 (third follow-up),"[2]; patient fixed effects, N 292, baseline mean 14.145, about 6 months, SE 0.854, p < 0.001",−4.313***
same,Change in ISI score between Visit 0 and Visit 2 (second follow-up),"[2]; patient fixed effects, N 349, baseline mean 14.145, about 4 months, SE 0.581, p < 0.001",−4.141***
same,Response of ISI score to treatment,[2]; patients beginning in the 'no clinically significant insomnia' category,do not exhibit any meaningful response
same,"Mean ISI scores by baseline ISI category, initial versus first follow-up visit (FIG. 10)","[2]; patients starting with subthreshold, moderate and severe clinical insomnia, mean 46.9 days between visits",significantly lower mean ISI scores in the first follow-up visit
same,Average ISI scores over the first six months (FIG. 13),[2]; patients with subthreshold and clinically significant insomnia scores at baseline,significant reduction over the 6-month period
same,Short-term change in ISI score from baseline to first follow-up (Visit 1 coefficient),"[2]; pooled specification, no patient fixed effects, 228 patients, baseline mean 14.145, average 46.9 days, SE 0.393, p < 0.001",−3.254***
same,Change in ISI score between visits versus cannabidiol dosage,[2]; prescribed between approximately 10 mg to 200 mg,report less insomnia at the first follow-up visit
same,"Change in ISI score, Visit 1 coefficient in model with interaction terms","[2]; reference category 'no clinically significant insomnia' at baseline, patient fixed effects, 228 patients, SE 0.646, not significant",0.959
same,"Change in ISI score, Visit 1 × subthreshold insomnia interaction coefficient","[2]; relative to 'no clinically significant insomnia', patient fixed effects, 228 patients, SE 0.901, p < 0.001",−3.308***
same,"Change in ISI score, Visit 1 × clinical insomnia (moderate severity) interaction coefficient","[2]; relative to 'no clinically significant insomnia', patient fixed effects, 228 patients, SE 0.970, p < 0.001",−6.231***
same,"Change in ISI score, Visit 1 × clinical insomnia (severe) interaction coefficient","[2]; relative to 'no clinically significant insomnia', patient fixed effects, 228 patients, SE 1.039, p < 0.001",−7.122***
same,"Change in ISI score between Visit 0 and Visit 1, by initial assessment category","[2]; subsample Clinical insomnia (moderate severity), 70 patients, baseline mean 17.757, SE 0.726, p < 0.001",−5.271***
same,"Change in ISI score between Visit 0 and Visit 1, by initial assessment category","[2]; subsample Clinical insomnia (severe), 43 patients, baseline mean 24.256, SE 0.823, p < 0.001",−6.163***
same,"Change in ISI score between Visit 0 and Visit 1, by initial assessment category","[2]; subsample No clinically significant insomnia, 49 patients, baseline mean 3.857, SE 0.652, not significant",0.959
same,"Change in ISI score between Visit 0 and Visit 1, by initial assessment category","[2]; subsample Subthreshold insomnia, 66 patients, baseline mean 11.364, SE 0.631, p < 0.001",−2.349***
